Test system: F. graminearum 3ADON (high toxin producing strain)
Format: cell-based, Fusarium graminearum

CC(/C=C/[C@@]1(C)[C@H](C)CCC(=O)[C@@H]1C)=C\Cc1c(O)cc(C)c(C=O)c1O [cylindrol B, 4-dihydroxy-6-methyl-3-[(2E,4E)-3-methyl-5-[(1R,2R,6R)-1,2,6-trimethyl-3-oxocyclohexyl]penta-2,4-dienyl]benzaldehyde]
clearing of fungus around the well: showed a clearing of fungus around the well
